Assays:
[1] = tested on: U87 and MLL tumor lines; assay: tumor growth, NIRS recordings and Chalkley counts during continuous anti-angiogenic treatment; type: in vivo, nude mice
Description: The relationship between non-invasive measures of tumor hemoglobin concentration by NIRS and estimates of vessel density by Chalkley counts was examined in seven tumor lines (gliomas: U87, U118, U373; Small Cell Lung Cancer (SCLC): 54A, 54B, DMS79; rat prostate cancer: MLL) on the hind leg of nude mice. Chalkley counts were obtained from CD31 immunostained cryosections. The NIRS absorbance increased with the tumor size until a tumor line specific plateau was reached from tumor sizes of 100-150 mm^3.
We also evaluated the correlation between tumor size and NIRS recordings during untreated growth for all seven tumor lines, and during continuous anti-angiogenic treatment with TNP-470 for two tumor lines, U87 and MLL.

[2] = tested on: bFGF induced angiogenic response; assay: anti-angiogenic activity in bFGF stimulated animals, LDF and NIRS recordings; type: in vivo, mouse
Description: (§1) The apparatus as shown on FIG. 9 was tested in a mouse model with a controlled angiogenic response induced by local application of an angiogenic agent, basic fibroblast growth factor (bFGF). Parallel experiments were performed with identical setup in order to correlate the sensitivity of near infrared spectroscopy (NIRS) compared to laser doppler flowmetry (LDF) for estimation of angiogenic and anti-angiogenic responses.
(§2) A slow release pellet (Innovative Res.) containing 100 micrograms of bFGF released at a constant rate over 10 days was implanted under the skin at three different locations in the mouse. The angiogenic response to the active substance was evaluated in comparison with placebo pellets. […] Median values and interquartile range is shown.
The ability to detect anti-angiogenic properties of therapeutic agents in these preparations was tested in the same technical settings by comparing treated versus untreated animals.
FIGS. 3A and 3B show the anti-angiogenic activity after treatment with TNP-470 (7 mg/kg q.d.x7, n=13). […] LDF recordings were performed on day 6, whereas NIRS recordings were performed on day 7 after implantation. Median values and interquartile range is shown.

[3] = tested on: angiogenic response; assay: angiogenic response to bFGF slow release pellet implanted under the skin, LDF and NIRS recordings; type: in vivo, mouse; details: pellet with 100 micrograms bFGF vs placebo pellets, p<0.05 vs placebo, p<0.001 vs controls
Description: as §1, §2

[4] = tested on: C3H murine mammary carcinoma; assay: anti-vascular effects by combined LDF and NIRS measurements in mice with tumor transplants; type: in vivo; details: for LDF: difference between post- and pre-treatment as percent of pre-treatment value; for LDF / NIRS* / pO2 after treatment % < 5 mm Hg: median, N = 3; for LDF / NIRS* / pO2 after treatment median / pO2 after treatment % < 5 mm Hg: i.p.: FAA 150, CA4B 250, DMX-AA 20, HDZ 5 mg/kg; for tumor blood perfusion estimated by LDF / hemoglobin concentration: in words; for hemoglobin concentration: from NIRS; for NIRS*: reflectance (1/absorbance), increase = decrease in hemoglobin concentration, post- minus pre-treatment as percent of pre-treatment; for pO2 after treatment median: tumor pO2, N = 3; for pO2 after treatment % < 5 mm Hg: tumor pO2 values below 5 mm Hg
Description: Anti-vascular effects on C3H murine mammary carcinoma were determined by combined LDF and NIRS measurements, in mice with tumor transplants using the apparatus shown in FIG. 9.
The three agents DMX-AA, FAA and CA4B are antivascular agents, which by various mechanisms cause collapse of tumor vasculature and consequently a decrease in tumor blood flow and oxygenation. Hydralazine (HDZ) is a well known anti-hypertensive agent that causes peripheral vasodilatation, i.e. a drop in vascular flow resistance leading to an acute decrease in tumor perfusion (a.k.a. the “steal effect”), because of the lack of autoregulation of tumor vessels. Numbers in the table represent differences between post-and pre-treatment measurements expressed as percent of the pre-treatment value. Number of experiments per drug=3.

[5] = treated vs untreated tumors of similar size, U87 and MLL

Compound | LDF [4] [%] | tumor blood perfusion estimated by LDF [4] | hemoglobin concentration [4] | NIRS* [4] | pO2 after treatment median [4] | pO2 after treatment % < 5 mm Hg [4] [%] | further results
CO[C@@H]1[C@H](OC(=O)NC(=O)CCl)CC[C@]2(CO2)[C@H]1[C@@]1(C)O[C@@H]1CC=C(C)C [TNP-470] |  |  |  |  |  |  | onset of tumor growth and the growth rate ([1]; continuous treatment, U87 and MLL tumors): significantly retarded; Chalkley counts [1, 5]: significantly lower; final NIRS recordings [1, 5]: significantly lower; LDF recordings ([2]; compared to untreated bFGF stimulated animals, day 6, TNP-470 7 mg/kg q.d.x7 (p<0.05), dexamethasone 10 mg/kg q.d.x7 (p<0.001)): significantly lower; NIRS recordings ([2]; compared to untreated bFGF stimulated animals, day 7, TNP-470 7 mg/kg q.d.x7 (p<0.05), dexamethasone 10 mg/kg q.d.x7 (p<0.001)): significantly lower; anti-angiogenic activity ([2]; treated versus untreated animals): Significant anti-angiogenic activity
basic fibroblast growth factor [bFGF] |  |  |  |  |  |  | LDF recordings ([3]; day 6 after implantation): significantly higher than placebo; NIRS recordings ([3]; day 7 after implantation): significantly higher than placebo
O=C(O)Cc1cccc2c(=O)cc(-c3ccccc3)oc12 [FAA] | −34 | decrease in perfusion | unchanged hemoglobin concentration | +6% | 1.5 | 69 | 
NNc1nncc2ccccc12 [HDZ, Hydralazine] | −93 |  |  | +36% | 1.9 | 85 | 
Cc1ccc2c(=O)c3cccc(CC(=O)O)c3oc2c1C [DMX-AA] | −74 | decrease in perfusion | unchanged hemoglobin concentration | +1% | 2.8 | 66 | 

Reference: patent publication US20010035503A1, “Method and apparatus for non-invasive detection of angiogenic and anti-angiogenic activity in living tissue” (priority 2000, published 2001)
